Measured values taken from PubChem BioAssay (NCI).
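Method: 48-hour compound exposure of cells in 96-well plates, five concentrations, linear interpolation of endpoints. The concentration for 50% growth inhibition is given as GI50. TGI denotes the concentration required for complete inhibition of growth.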

Legend:
Assay in all cases: NCI-60 cell line screen, 48 h
[1] = system: KM12 colon
[2] = system: MOLT-4 leukemia
[3] = system: NCI-H226 lung
[4] = system: EKVX NSCLC
[5] = system: SK-MEL-28 melanoma
[6] = system: NCI-H23 lung
[7] = system: LOX IMVI melanoma
[8] = system: SNB-19 CNS
[9] = system: NCI/ADR-RES ovarian
[10] = system: DU-145 prostate

With COC(=O)C(CC(=O)c1c[nH]c2ccccc12)c1c[nH]c2ccccc12 (configuration not stated) the TGI [1] was > 10 µM, the TGI [2] was 46.7 µM and the TGI [3] was 54.3 µM. The TGI [4] was 74.1 µM, the TGI [5] was 42.1 µM and the TGI [6] was 34 µM.
With ClCc1ccc(C2OCCO2)cc1 the TGI [1] was 18.4 µM, the TGI [2] was 45.6 µM and the TGI [3] was 40.1 µM. For the same molecule, the TGI [7] was 24.5 µM, the TGI [4] was > 63 µM and the TGI [5] was > 58.6 µM. The TGI [8] was > 59 µM and the TGI [6] was 17.2 µM.
Molecule CC1=NOC(=O)C1N=Nc1ccc(Br)c(C)c1 (configuration not stated) has a TGI [1] of 78 µM, a TGI [2] of 45.3 µM and a TGI [3] of 53.4 µM. It also gave a TGI [4] of 32 µM, a TGI [5] of 48.7 µM and a TGI [8] of 92.8 µM. For the same molecule, the TGI [6] was 44.2 µM.
N#Cc1c(C[n+]2ccccc2)c2ccccc2oc1=O was tested, and the TGI [1] was > 100 µM, the TGI [2] was > 100 µM and the TGI [3] was > 100 µM. The TGI [7] was > 100 µM, the TGI [4] was > 100 µM and the TGI [5] was > 100 µM. For the same molecule, the TGI [8] was > 100 µM and the TGI [6] was > 100 µM.
For COC(=O)c1ccc(CN2C(=O)C(Cl)=C(Nc3ccc(OC)c(Cl)c3)C2=O)cc1, the GI50 [1] was 5.42 µM, the TGI [1] was > 50 µM and the GI50 [2] was 5.83 µM. The TGI [2] was 49 µM, the GI50 [9] was 12.7 µM and the TGI [9] was 30.9 µM. For the same molecule, the GI50 [7] was 5.66 µM, the TGI [7] was 26.7 µM and the GI50 [4] was 22.3 µM. For the same molecule, the TGI [4] was > 50 µM, the GI50 [10] was 21.8 µM and the TGI [10] was > 50 µM. It also gave a GI50 [5] of 8.48 µM, a TGI [5] of 30.7 µM and a GI50 [8] of 5.93 µM. For the same molecule, the TGI [8] was 22.3 µM, the GI50 [6] was 14.4 µM and the TGI [6] was 39.3 µM.
For Nc1ccc(C(=O)CC2(O)C(=O)Nc3c(Cl)cc(Cl)cc32)cc1 (configuration not stated), the TGI [1] was > 100 µM, the TGI [2] was > 100 µM and the TGI [3] was > 100 µM. For the same molecule, the TGI [7] was > 100 µM, the TGI [4] was > 100 µM and the TGI [5] was > 100 µM. For the same molecule, the TGI [8] was > 100 µM and the TGI [6] was > 100 µM.
COc1ccc(/C=C\c2cc(OC)c(OC)c(OC)c2)c(NS(=O)(=O)c2ccc(Cl)cc2)c1O gave a GI50 [1] of 0.127 µM, a TGI [1] of 12.8 µM and a GI50 [2] of 0.315 µM. It also gave a TGI [2] of 83.3 µM, a GI50 [3] of 24.9 µM and a TGI [3] of 90.4 µM. It also gave a GI50 [9] of 0.263 µM, a TGI [9] of 22.4 µM and a GI50 [7] of 0.153 µM. For the same molecule, the TGI [7] was 15.5 µM, the GI50 [10] was 0.2 µM and the TGI [10] was > 100 µM. The GI50 [5] was 0.084 µM, the TGI [5] was 31.6 µM and the GI50 [8] was 0.807 µM. The TGI [8] was > 100 µM, the GI50 [6] was 0.288 µM and the TGI [6] was 42.4 µM.
For O=C1CCN2CCC(=O)c3c2c(cc2ccccc32)N1, the TGI [1] was > 100 µM, the TGI [2] was > 100 µM and the TGI [3] was > 100 µM. For the same molecule, the TGI [7] was > 100 µM, the TGI [4] was > 100 µM and the TGI [8] was > 100 µM.
For COc1cc(/C=C/c2ccc(OC)c(OC)c2OC)cc(OC)c1OC, the TGI [1] was 57.3 µM, the TGI [2] was > 62 µM and the TGI [3] was 39.7 µM. The TGI [7] was 30.8 µM, the TGI [4] was > 70.8 µM and the TGI [5] was 37.7 µM. For the same molecule, the TGI [8] was 97.9 µM and the TGI [6] was 69.2 µM.
COC(=O)C(=O)C(C(=O)C(N)=O)c1nc2ccc(C(=O)c3ccccc3)cc2[nH]c1=O (configuration not stated) was tested, and the TGI [1] was > 100 µM, the TGI [2] was > 100 µM and the TGI [3] was > 100 µM. The TGI [9] was > 100 µM, the TGI [7] was > 100 µM and the TGI [4] was > 100 µM. For the same molecule, the TGI [5] was > 100 µM.
With Cc1c(Cl)cccc1NC(=O)/C(Cl)=C(\Cl)C(=O)O the TGI [1] was 31.1 µM, the TGI [2] was 48.2 µM and the TGI [3] was 51.3 µM. The TGI [7] was 32.7 µM, the TGI [5] was 35.4 µM and the TGI [8] was > 100 µM. The TGI [6] was 33.8 µM.
With CCOC(=O)Cc1csc(N=Nc2c(O)[nH]c3ccccc23)n1 the TGI [1] was > 100 µM, the TGI [2] was 73.1 µM and the TGI [3] was > 100 µM. For the same molecule, the TGI [9] was > 100 µM, the TGI [7] was > 100 µM and the TGI [4] was > 100 µM. For the same molecule, the TGI [10] was > 100 µM, the TGI [8] was > 100 µM and the TGI [6] was > 100 µM.
In the case of CC1=C(/C=C/C(C)=C/C=C/C(C)=C/C=C/C=C(C)/C=C/C=C(C)/C=C/C2=C(C)C(=O)C(O)CC2(C)C)C(C)(C)CC(O)C1=O (configuration not stated), the TGI [1] is reported as > 100 µM, the TGI [2] is reported as > 100 µM and the TGI [3] is reported as > 100 µM. For the same molecule, the TGI [7] was > 100 µM, the TGI [4] was > 100 µM and the TGI [5] was > 100 µM. The TGI [8] was > 100 µM and the TGI [6] was > 100 µM.
For S=P(N1CCCC1)(N1CC1)N1CC1, the TGI [1] was > 100 µM, the TGI [2] was > 100 µM and the TGI [3] was > 100 µM. The TGI [7] was > 100 µM, the TGI [4] was > 100 µM and the TGI [5] was > 100 µM. The TGI [8] was > 100 µM and the TGI [6] was > 100 µM.
COc1ccc(N2C(=O)C3c4[nH]c5ccccc5c4C4CCCCCCC4C3C2=O)cc1 (configuration not stated) was tested, and the TGI [1] was > 100 µM, the TGI [2] was 37.9 µM and the TGI [3] was 31.6 µM. For the same molecule, the TGI [7] was 20.8 µM, the TGI [4] was 41.4 µM and the TGI [5] was 42 µM. For the same molecule, the TGI [8] was 28.1 µM and the TGI [6] was 31.2 µM.
For CCOC(=O)C1=C(Nc2ccc(Cl)c(Cl)c2)OC/C1=N\NC(=O)Cc1ccccc1, the TGI [1] was > 100 µM, the TGI [2] was > 100 µM and the TGI [3] was > 100 µM. The TGI [7] was > 100 µM, the TGI [4] was > 100 µM and the TGI [5] was > 100 µM. The TGI [8] was > 100 µM and the TGI [6] was > 100 µM.
For COc1cc(C2c3cc4c(cc3[C@@H](N(C)C)[C@H]3COC(=O)C23)OCO4)cc(OC)c1O (some centres not stated), the TGI [1] was > 100 µM, the TGI [2] was > 100 µM and the TGI [3] was > 100 µM. For the same molecule, the TGI [7] was > 100 µM, the TGI [4] was > 100 µM and the TGI [5] was > 100 µM. For the same molecule, the TGI [6] was > 100 µM.
For Cc1c(C(=O)CC(=O)C(=O)Nc2cc(Cl)ccc2Cl)[n+](=O)c2ccccc2n1[O-], the TGI [1] was > 100 µM, the TGI [2] was 66.5 µM and the TGI [3] was > 100 µM. The TGI [7] was 93.5 µM, the TGI [4] was > 100 µM and the TGI [5] was > 100 µM. For the same molecule, the TGI [8] was > 100 µM and the TGI [6] was > 100 µM.
Clc1ccc2ns[s+]c2c1 was tested, and the TGI [1] was > 100 µM, the TGI [2] was > 100 µM and the TGI [3] was > 100 µM. The TGI [7] was > 84 µM, the TGI [4] was > 100 µM and the TGI [10] was > 100 µM. For the same molecule, the TGI [5] was > 100 µM, the TGI [8] was > 100 µM and the TGI [6] was > 46.4 µM.
CC1(O)CCC2(C)C(=O)C1(C)CCC21OCCO1 (configuration not stated) was tested, and the TGI [1] was > 100 µM, the TGI [2] was > 100 µM and the TGI [3] was > 100 µM. For the same molecule, the TGI [4] was > 100 µM, the TGI [5] was > 100 µM and the TGI [8] was > 100 µM. For the same molecule, the TGI [6] was > 100 µM.
In the case of CN1C(=O)C2C=CC1C1CCC2N(C)C1=O (configuration not stated), the TGI [1] is reported as > 100 µM, the TGI [2] is reported as > 100 µM and the TGI [3] is reported as > 100 µM. For the same molecule, the TGI [7] was > 100 µM, the TGI [4] was > 100 µM and the TGI [5] was > 100 µM. The TGI [8] was > 100 µM and the TGI [6] was > 100 µM.
CCCCN(CCCC)CCc1c(C)cc(C)c(CCN(CCCC)CCCC)c1O gave a GI50 [1] of 3.2 µM, a TGI [1] of 21.2 µM and a GI50 [2] of 2.73 µM. It also gave a TGI [2] of 10.8 µM, a GI50 [3] of 3.16 µM and a TGI [3] of 37.8 µM. It also gave a GI50 [9] of 3.63 µM, a TGI [9] of 88.1 µM and a GI50 [7] of 2.67 µM. The TGI [7] was > 100 µM, the GI50 [10] was 3.76 µM and the TGI [10] was > 100 µM. The GI50 [5] was 3.97 µM, the TGI [5] was > 100 µM and the GI50 [8] was 3.04 µM. For the same molecule, the TGI [8] was > 100 µM, the GI50 [6] was 2.76 µM and the TGI [6] was 23.7 µM.
With O=C(CSc1nc(-c2ccccc2)c(-c2ccccc2)[nH]1)NNC(=S)Nc1ccccc1 the TGI [1] was > 100 µM, the TGI [2] was > 100 µM and the TGI [3] was > 100 µM. The TGI [7] was > 100 µM, the TGI [4] was > 100 µM and the TGI [5] was > 100 µM. For the same molecule, the TGI [8] was > 100 µM and the TGI [6] was > 100 µM.
